Tests used:
IVS cells = test: IFN-γ ELISPOT with IVS cells (DC pulsed once with HERV-K protein) against MAPs, 9-mer pools or single peptides; assay type: cell-based, human; settings: donor 449731, IVS cells, FIG. 15C
Excerpt: FIGS. 15A-C. ELISPOT was employed to determine the production of IFN-γ in twelve 15-mer small pools. (FIG. 15A) Numbers of spots detected in multiple pools are shown for a breast cancer patient diagnosed with IDC (Acc 30) or a patient diagnosed with teratoma (Acc 32). (FIG. 15B) Numbers of spots detected in multiple pools are shown for a patient diagnosed with left breast minute foci of sugg papillary lesion (967092) or IDC (Acc 31). SP 1-12 represents small peptide pools #1-12. Pool 0 contains no peptides (as control). (FIG. 15C) T cells obtained from PBMC stimulated once with HERV-K-specific pulsed homologous B cells were reactive with individual MAPs, pools of 9-mer peptides, or single 9-mer peptides. NP: no peptide control.
IVS were obtained from two donor pairs stimulated with DC pulsed once with HERV-K protein. After 7 days (1-week stimulation), IVS cells were used for ELISPOT with 15-mer peptides (FIGS. 15A-B) or MAPs including MAP73, MAP75-76, MAP82-93, MAP 92-93, and MAP95-96 or 9 mer peptide pools (#1 to 5, #5 to 10, #1 to 10, #12 to 17, #18 to 22) or single peptides (#3, #18, and #4.11; FIG. 15C). Candidate epitopes (#4 and #11) were further identified using IVS generated from DC obtained from cancer patients stimulated with HERV-K antigen in this study.

T cells in PBMCs = test: IFN-γ release by ELISA from PBMC stimulated with peptides or protein; assay type: cell-based, human; settings: stimulated PBMC, FIG. 21A
Excerpt: FIG. 17. T cell stimulation by HERV-K peptides. Peptides (p73-76 and p18-135) or HERV-K SU fusion proteins were used to stimulate PBMC and evaluated in vitro for their ability to stimulate T cells in PBMCs from healthy subjects (ND1007083; left) and/or cancer patients (BC 243; right), based on interferon-γ(IFN-γ) release by ELISA. KLH peptide and GST protein were used as controls. Other negative controls included media only, DMSO, and PBS.
FIG. 18. T cell stimulation by HERV-K peptides. Peptides (p73-76: left; and p18-135: middle) or HERV-K SU fusion proteins (right) were used to stimulate PBMC and evaluated in vitro for their ability to stimulate T cells in PBMCs from healthy subjects and/or cancer patients (BC 243; middle), based on interferon-γ (IFN-γ) release by ELISA. OD values of interferon-γ (IFN-γ) release were compared between normal donors (ND447549, ND1001366, and ND1007083) and cancer patients (OC222, OC 210, OC212, and BC243). OC is ovarian cancer and BC is breast cancer
FIGS. 21A-C. T Cell Stimulation. 9 mer Peptides (HERVK-3, HERVK-4, HERVK-11, and HERVK-18; see Table 1), p73-76 and p18-135 (Table 1 178 and 179), or HERV-K SU fusion proteins were used to stimulate PBMC and evaluated in vitro for their ability to stimulate T cells in PBMCs from healthy subjects and/or cancer patients, based on IFN-γ and Granzyme B release by ELISA. (FIG. 21A) OD values of IFN-γ release were compared in a normal donor (ND291812). (FIG. 21B) OD values of IFN-γ release were compared between a normal donor (ND291817) and an ovarian cancer patient (OC153). (FIG. 21C) OD values of Granzyme B release were compared between a normal donor (ND291817) and an ovarian cancer patient (OC153). Each dot represents an individual clone. Negative controls measured release of effector molecules from cancer cells after treatment with supernatants obtained from PBMCs without stimulation with HERV-K peptides or protein; positive controls were stimulated with PMA/ONO.
Cancer patients were enrolled to evaluate HERV-K as a tumor associated antigen target. Patients provided written informed consent as part of an approved protocol (LAB04-0083) at MD Anderson Cancer Center prior to commencing the studies. Normal healthy donor control blood samples were obtained from Gulf Coast Regional Blood Center, Houston Tex. 40 mL of peripheral blood was obtained from each patient, and peripheral blood mononuclear cells (PBMCs) were isolated by density gradient centrifugation using Histopaque-1077 (Sigma-Aldrich; USA). HLA-A*02 expression in PBMCs obtained from cancer patients and healthy subjects was determined by flow cytometry with PE Mouse anti-human HLA-A2 mAb BB7.2 (BD Pharmingen; San Diego, Calif., USA). Mouse IgG2b was used as an isotype control. PBMCs (5×10^5 cells/well) from either healthy subjects or cancer patients were incubated with Peptide #18-135 ([…]; SEQ ID NO: 178), Peptide #73-76 ([…]; SEQ ID NO: 179) or KLH as control peptide) or proteins (HERV-K env SU protein or GST protein as control) at concentrations of 40 μg/mL in 96-well U-bottom microplates (BD; Franklin Lakes, N.J., USA) in 100 μL of T-cell medium (TCM), consisting of RPMI 1640 (Mediatech; Manassas, Va., USA), 10% human AB serum (Valley Biomedical, Winchester, USA), […] 2-mercaptoethanol, 100 IU/mL interleukin-2 (IL-2), and 0.1 mM MEM nonessential amino acid solution (Invitrogen; Grand Island, N.Y., USA). Half of the TCM was removed and replaced with fresh TCM containing peptides (20 μg/mL) on day 7. After 14 days of culture, the supernatants from cell culture media (PBMC pulsed with peptides or proteins) were harvested and tested for their ability to produce IFN-gamma or IL-2, and granzyme B release was also determined by enzyme-linked immunosorbent assay (ELISA) assay. In order to detect the secreted cytokine in this assay, high-binding plates were coated with 5 μg/ml anti-IFN-γ (Mabtech, Stockholm, Sweden) diluted in PBS buffer at 4° C. overnight. […]

Sequence	HERV-K specific T cell epitope (IFN-γ ELISPOT) (IVS cells)	IFN-γ release (OD values) (T cells in PBMCs)
IINLILILV [HERVK-18]	HERV-K specific T cell epitopes	Higher IFN-γ release
YMLVVGNIV [HERVK-3]	HERV-K specific T cell epitopes	Higher IFN-γ release
